# Laboratory results published in patent US9820943B2, “Micronized amoxicillin” (DSM SINOCHEM PHARMACEUTICALS NETHERLANDS B.V., priority 2013, dated 2017).
# How the values were obtained:
# Assay type in all cases: physicochemical
# [1] = Specific powder surface area by nitrogen gas sorption (BET); conditions: triplicate, trihydrate
# Description: Specific powder surface area was determined using nitrogen gas sorption (Smartsorb, Smart Instruments, Mumbai, India). Prior to measurements, samples were regenerated by degassing to remove moisture and contamination. The regenerated sample was dipped in liquid nitrogen and the quantity of the adsorbed gas was measured using a thermal conductivity detector and subsequently integrated using an electronic circuit in terms of counts. The instrument was calibrated by injecting a known quantity of nitrogen. The measured parameters were subsequently used to calculate the surface area of the sample by employing the adsorption theories of Brunauer, Emmett and Teller (BET).
# (§1) Parameters operated were: • Augar Speed: 5-90 rpm • Primary Air Pressure: 2-8 kg·cm^−2 • Secondary Air Pressure: 4-10 kg·cm^−2 The surface area (in triplicate), average particle size and contact angle (in quadruplicate) were determined as outlined in the General section. The purity of the amoxicillin trihydrate samples was 99.4±0.3% and were void of dichloromethane, isopropanol, pivalic acid and triethyl amine.
# [2] = Particle size distribution by laser diffraction (Malvern); conditions: trihydrate
# Description: Particle size distribution values D10, D50, D90 and D100 were determined using laser diffraction applying Malvern equipment. A suitable apparatus for determining D10, D50, D90 and D100 is a Malvern particle sizer 2600 C or a Malvern Zeta Sizer.
# as §1
# [3] = Contact angle by sessile drop method (water); conditions: ambient conditions, trihydrate
# Description: Contact angles of amoxicillin trihydrate powder samples were measured by the sessile drop method using an Drop Shape Analyzer instrument (FTA 1000, First Ten Angstrom, Virginia, USA). Powder samples were mounted on double sided adhesive tape adhered to a glass slide and excess powder was removed by tapping the slide. A drop of probe liquid (water) was dispersed onto the sample surface and video images were captured by the FTA image analyzer. The contact angle was calculated by the instrument by fitting a mathematical expression to the shape of the drop followed by calculating the slope of the tangent to the drop at the liquid-solid-vapor interface line. The surface tension of ultrapure ELGA laboratory water was measured to be 73±0.5 mN·m^−1 at 25° C. All measurements were performed in air under ambient conditions and an average of four measurements was reported in the below Examples.
# as §1
# [4] = Powder dissolution, USP/NF paddle method with HPLC analysis; conditions: 500 mg in 900 mL water, 37 °C, 75 rpm; for Amoxicillin released in solution Mean: mean of 3; for Amoxicillin released in solution #1: replicate #1; for Amoxicillin released in solution #2: replicate #2; for Amoxicillin released in solution #3: replicate #3
# Description: Dissolution analysis of amoxicillin trihydrate powder samples was carried out using the USP/NF paddle method at a rotational speed of 75 rpm. Ultrapure ELGA laboratory water (900 mL) was used as dissolution medium. Media were equilibrated to 37.0±0.5° C. prior to dissolution. Amoxicillin trihydrate sample powder (500 mg) was directly added to the dissolution apparatus (Electrolab USP-24, India). Samples were collected at 0, 1, 3, 5, 10, 15, 30, 60 and 90 min, filtered through 0.2 μm filters and analyzed by HPLC. Dissolution profiles were constructed by plotting the percentage amoxicillin released against time.
# The HPLC system (Shimadzu Corporation, Kyoto, Japan) comprised of an SCL-10A VP system controller, LC-10AT VP liquid chromatograph, FCV-10AL VP flow control valve, DGU-14A degasser, SIL-10AD VP auto-injector, CTO-10AS VP column oven, SPD-M20A prominence diode array (PDA) detector and data acquisition Class-VP 6.10 software. The HPLC method was adopted from the United States Pharmacopoeia (USP). The method was validated for linearity, precision, accuracy and intra- and inter-day variability. The mobile phase was 50 mM monobasic potassium phosphate:methanol (96:4, v/v, pH 5.0). All analyses were carried out using Lichrospher® 100 RP-18e analytical column (5 μm, Merck KGaA, Darmstadt, Germany) under isocratic conditions at a flow rate of 1.0 mL·min^−1 at 25° C. with 20 μL injection volume. Effluent was monitored at a wavelength of 230 nm. Samples for calibration curve generation were prepared in 50 mM monobasic potassium phosphate:methanol 1:1 (v/v) proportion at a concentration range of 1 to 600 μg·mL^−1.
# The three non-micronized (i.e. entries 1-3 of Table 1) and micronized (i.e. entries 4-6 of Table 1) amoxicillin trihydrate samples of Example 1 were subjected to a powder dissolution test (in triplicate) as outlined in the General section.
smiles,measurement,setting,value
"CC1(C)S[C@@H]2[C@H](NC(=O)[C@H](N)c3ccc(O)cc3)C(=O)N2[C@H]1C(=O)O.O.O.O [entry 5, amoxicillin trihydrate]",Surface Area Mean ± SD (n = 3),[1],2.03 ± 0.15 m^2 · g^−1
same,Average Particle Size D10,[2],1.9 μm
same,Average Particle Size D50,[2],10.0 μm
same,Average Particle Size D90,[2],22.5 μm
same,Average Particle Size D100,[2],44.3 μm
same,Contact Angle Mean ± SD (n = 4),[3],97.89 ± 1.22
same,Amoxicillin released in solution Mean,[4]; 0 min,0%
same,Amoxicillin released in solution #1,[4]; 0 min,0%
same,Amoxicillin released in solution #2,[4]; 0 min,0%
same,Amoxicillin released in solution #3,[4]; 0 min,0%
same,Amoxicillin released in solution Mean,"[4]; 1 min, trihydrate",59.93%
same,Amoxicillin released in solution #1,"[4]; 1 min, trihydrate",58.56%
same,Amoxicillin released in solution #2,"[4]; 1 min, trihydrate",62.91%
same,Amoxicillin released in solution #3,"[4]; 1 min, trihydrate",58.32%
same,Amoxicillin released in solution Mean,"[4]; 3 min, trihydrate",77.98%
same,Amoxicillin released in solution #1,"[4]; 3 min, trihydrate",78.61%
same,Amoxicillin released in solution #2,"[4]; 3 min, trihydrate",80.12%
same,Amoxicillin released in solution #3,"[4]; 3 min, trihydrate",75.20%
same,Amoxicillin released in solution Mean,"[4]; 5 min, trihydrate",82.14%
same,Amoxicillin released in solution #1,"[4]; 5 min, trihydrate",83.91%
same,Amoxicillin released in solution #2,"[4]; 5 min, trihydrate",82.77%
same,Amoxicillin released in solution #3,"[4]; 5 min, trihydrate",79.73%
same,Amoxicillin released in solution Mean,"[4]; 10 min, trihydrate",86.84%
same,Amoxicillin released in solution #1,"[4]; 10 min, trihydrate",89.18%
same,Amoxicillin released in solution #2,"[4]; 10 min, trihydrate",88.59%
same,Amoxicillin released in solution #3,"[4]; 10 min, trihydrate",82.76%
same,Amoxicillin released in solution Mean,"[4]; 15 min, trihydrate",89.32%
same,Amoxicillin released in solution #1,"[4]; 15 min, trihydrate",90.98%
same,Amoxicillin released in solution #2,"[4]; 15 min, trihydrate",92.05%
same,Amoxicillin released in solution #3,"[4]; 15 min, trihydrate",84.94%
same,Amoxicillin released in solution Mean,"[4]; 30 min, trihydrate",96.72%
same,Amoxicillin released in solution #1,"[4]; 30 min, trihydrate",94.78%
same,Amoxicillin released in solution #2,"[4]; 30 min, trihydrate",99.20%
same,Amoxicillin released in solution #3,"[4]; 30 min, trihydrate",96.17%
same,Amoxicillin released in solution Mean,"[4]; 60 min, trihydrate",97.60%
same,Amoxicillin released in solution #1,"[4]; 60 min, trihydrate",97.29%
same,Amoxicillin released in solution #2,"[4]; 60 min, trihydrate",99.86%
same,Amoxicillin released in solution #3,"[4]; 60 min, trihydrate",95.65%
same,Amoxicillin released in solution Mean,"[4]; 90 min, trihydrate",99.15%
same,Amoxicillin released in solution #1,"[4]; 90 min, trihydrate",99.33%
same,Amoxicillin released in solution #2,"[4]; 90 min, trihydrate",99.64%
same,Amoxicillin released in solution #3,"[4]; 90 min, trihydrate",98.47%
"CC1(C)S[C@@H]2[C@H](NC(=O)[C@H](N)c3ccc(O)cc3)C(=O)N2[C@H]1C(=O)O.O.O.O [entry 6, amoxicillin trihydrate]",Surface Area Mean ± SD (n = 3),[1],1.69 ± 0.07 m^2 · g^−1
same,Average Particle Size D10,[2],1.9 μm
same,Average Particle Size D50,[2],10.0 μm
same,Average Particle Size D90,[2],22.4 μm
same,Average Particle Size D100,[2],38.9 μm
same,Contact Angle Mean ± SD (n = 4),[3],107.84 ± 1.72
same,Amoxicillin released in solution Mean,[4]; 0 min,0%
same,Amoxicillin released in solution #1,[4]; 0 min,0%
same,Amoxicillin released in solution #2,[4]; 0 min,0%
same,Amoxicillin released in solution #3,[4]; 0 min,0%
same,Amoxicillin released in solution Mean,"[4]; 1 min, trihydrate",70.68%
same,Amoxicillin released in solution #1,"[4]; 1 min, trihydrate",70.98%
same,Amoxicillin released in solution #2,"[4]; 1 min, trihydrate",72.37%
same,Amoxicillin released in solution #3,"[4]; 1 min, trihydrate",68.67%
same,Amoxicillin released in solution Mean,"[4]; 3 min, trihydrate",79.56%
same,Amoxicillin released in solution #1,"[4]; 3 min, trihydrate",82.73%
same,Amoxicillin released in solution #2,"[4]; 3 min, trihydrate",76.25%
same,Amoxicillin released in solution #3,"[4]; 3 min, trihydrate",79.68%
same,Amoxicillin released in solution Mean,"[4]; 5 min, trihydrate",82.60%
same,Amoxicillin released in solution #1,"[4]; 5 min, trihydrate",84.40%
same,Amoxicillin released in solution #2,"[4]; 5 min, trihydrate",78.46%
same,Amoxicillin released in solution #3,"[4]; 5 min, trihydrate",84.94%
same,Amoxicillin released in solution Mean,"[4]; 10 min, trihydrate",85.67%
same,Amoxicillin released in solution #1,"[4]; 10 min, trihydrate",85.63%
same,Amoxicillin released in solution #2,"[4]; 10 min, trihydrate",82.85%
same,Amoxicillin released in solution #3,"[4]; 10 min, trihydrate",88.53%
same,Amoxicillin released in solution Mean,"[4]; 15 min, trihydrate",88.11%
same,Amoxicillin released in solution #1,"[4]; 15 min, trihydrate",87.94%
same,Amoxicillin released in solution #2,"[4]; 15 min, trihydrate",85.45%
same,Amoxicillin released in solution #3,"[4]; 15 min, trihydrate",90.95%
same,Amoxicillin released in solution Mean,"[4]; 30 min, trihydrate",96.85%
same,Amoxicillin released in solution #1,"[4]; 30 min, trihydrate",96.08%
same,Amoxicillin released in solution #2,"[4]; 30 min, trihydrate",96.66%
same,Amoxicillin released in solution #3,"[4]; 30 min, trihydrate",97.81%
same,Amoxicillin released in solution Mean,"[4]; 60 min, trihydrate",99.37%
same,Amoxicillin released in solution #1,"[4]; 60 min, trihydrate",99.56%
same,Amoxicillin released in solution #2,"[4]; 60 min, trihydrate",98.85%
same,Amoxicillin released in solution #3,"[4]; 60 min, trihydrate",99.69%
same,Amoxicillin released in solution Mean,"[4]; 90 min, trihydrate",98.76%
same,Amoxicillin released in solution #1,"[4]; 90 min, trihydrate",97.01%
same,Amoxicillin released in solution #2,"[4]; 90 min, trihydrate",99.48%
same,Amoxicillin released in solution #3,"[4]; 90 min, trihydrate",99.78%
